In ChEMBL document CHEMBL1143983, “A photoswitchable ITAM peptidomimetic: synthesis and real time surface plasmon resonance (SPR) analysis of the effects of cis-trans isomerization on binding” (Bioorg Med Chem, 2008):

Molecular target: Tyrosine-protein kinase SYK (Homo sapiens, UniProt P43405)
Test: Binding affinity to Syk tSH2 domain by SPR binding assay

Kd: 65 nM
Structure (SMILES): CC(=O)N[C@@H](Cc1ccc(OP(=O)(O)O)cc1)C(=O)N[C@H](C(=O)NCC(=O)N[C@@H](CC(C)C)C(=O)NCC(=O)NCc1ccc(/N=N/c2ccc(C(=O)NCC(=O)N[C@@H](Cc3ccc(OP(=O)(O)O)cc3)C(=O)N[C@@H](CCC(=O)O)C(=O)N[C@H](C(=O)N[C@@H](CC(C)C)C(N)=O)[C@H](C)O)cc2)cc1)[C@H](C)O
